In patent publication US12673946B2, “Pyrimidin-4(3H)-one derivatives as TRPV4 antagonists” (RaQualia Pharma Inc., priority 2020, dated 2026) one finds IC50 data, which are given here for 43 compounds.

The test addresses T1, human TRPV4 (Homo sapiens, UniProt Q9HBA0).
T1 construct: host or cells: tetracycline-inducible Flp-In T-REx 293 cells
The experiment in a line: Hypotonicity-induced Ca2+ influx (Fluo-4, FDSS). The test is classed as cell-based. The method, boiled down: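 Flp-In T-REx 293 cells with tetracycline-induced human TRPV4, loaded with Fluo-4 for 60 min at 25 °C. Compound added 5 min before hypotonic mannitol/CaCl2 solution. Ca2+ signal recorded for 4.5 min on FDSS.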

[1] abbreviates: Flp-In T-REx 293 cells expressing human TRPV4, examples listed under heading 'Human IC50<50 nM'.
The mark [2] stands for this setting: Flp-In T-REx 293 cells stably expressing human TRPV4, compounds listed by potency bin (<10 nM Tables 96-1/96-2, <3 nM Table 97).

T1 sequence (Q9HBA0 whole entry): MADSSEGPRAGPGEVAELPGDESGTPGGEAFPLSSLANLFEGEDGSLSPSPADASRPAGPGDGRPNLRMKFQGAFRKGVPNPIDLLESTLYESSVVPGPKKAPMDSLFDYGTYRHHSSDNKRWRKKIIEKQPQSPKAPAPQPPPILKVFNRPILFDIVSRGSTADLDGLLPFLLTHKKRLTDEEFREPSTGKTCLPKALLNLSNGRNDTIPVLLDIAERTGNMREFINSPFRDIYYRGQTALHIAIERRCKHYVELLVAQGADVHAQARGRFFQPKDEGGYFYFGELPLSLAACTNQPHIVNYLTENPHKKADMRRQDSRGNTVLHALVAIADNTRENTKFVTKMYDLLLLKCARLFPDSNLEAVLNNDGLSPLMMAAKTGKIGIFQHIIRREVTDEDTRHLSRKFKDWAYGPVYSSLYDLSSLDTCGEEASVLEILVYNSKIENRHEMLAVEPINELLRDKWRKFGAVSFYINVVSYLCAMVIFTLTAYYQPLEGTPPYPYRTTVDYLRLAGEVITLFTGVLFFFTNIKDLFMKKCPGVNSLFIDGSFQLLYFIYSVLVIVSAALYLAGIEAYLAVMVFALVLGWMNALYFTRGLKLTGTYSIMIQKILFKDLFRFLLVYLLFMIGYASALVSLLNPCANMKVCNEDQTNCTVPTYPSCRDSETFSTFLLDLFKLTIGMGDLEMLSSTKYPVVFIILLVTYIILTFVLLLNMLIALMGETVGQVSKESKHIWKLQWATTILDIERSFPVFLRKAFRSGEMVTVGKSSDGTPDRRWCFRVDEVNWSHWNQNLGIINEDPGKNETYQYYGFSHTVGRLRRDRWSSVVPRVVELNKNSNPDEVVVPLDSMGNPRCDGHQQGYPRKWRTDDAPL

As to `CN1CCc2cc(-c3cccc(C4(c5nc6c(c(=O)[nH]5)CN(C(=O)[C@H](O)c5cccc(C(F)(F)F)c5)CCC6)CC4)c3)ccc21` [42-50], the IC50 (as a rule, the concentration that inhibits the measured activity by half) under setting [1] was < 50 nM and the IC50 under setting [2] was < 10 nM.

On to `O=C([C@H](O)c1cccc(C(F)(F)F)c1)N1CCCc2nc(C3(c4cccc(-c5ccc(N6CCCC6)nc5)c4)CC3)[nH]c(=O)c2C1` [42-51], for which the IC50 runs as follows: under setting [1], < 50 nM; under setting [2], < 10 nM. As to `O=C([C@H](O)c1cccc(C(F)(F)F)c1)N1CCCc2nc(C3(c4cccc(-c5ccc(CN6CCCC6)cc5)c4)CC3)[nH]c(=O)c2C1` [42-52], under setting [1], the IC50 was < 50 nM.

For `CN(C)Cc1ccc(-c2cccc(C3(c4nc5c(c(=O)[nH]4)CN(C(=O)[C@H](O)c4cccc(C(F)(F)F)c4)CCC5)CC3)c2)cc1` [42-53], the IC50 under setting [1] is < 50 nM. As to `CNc1ccc(-c2cccc(C3(c4nc5c(c(=O)[nH]4)CN(C(=O)[C@H](O)c4cccc(C(F)(F)F)c4)CCC5)CC3)c2)cn1` [42-54], the IC50 by setting is: under setting [1], < 50 nM; under setting [2], < 10 nM. In the case of `N#Cc1ccc(-c2cccc(C3(c4nc5c(c(=O)[nH]4)CN(C(=O)[C@H](O)c4cccc(C(F)(F)F)c4)CCC5)CC3)c2)cn1` [42-55], the IC50 is < 50 nM under setting [1] and < 3 nM under setting [2]. For `O=C([C@H](O)c1cccc(C(F)(F)F)c1)N1CCCc2nc(C3(c4cccc(-c5ccccc5F)c4)CC3)[nH]c(=O)c2C1` [42-56], in that order: < 50 nM and < 10 nM. As for `Cc1ccc(-c2cccc(C3(c4nc5c(c(=O)[nH]4)CN(C(=O)[C@H](O)c4cccc(C(F)(F)F)c4)CCC5)CC3)c2)cc1` [42-57], the IC50 under setting [1] was < 50 nM and the IC50 under setting [2] was < 10 nM. The like results for `O=C([C@H](O)c1cccc(C(F)(F)F)c1)N1CCCc2nc(C3(c4cccc(-c5cccc(F)c5)c4)CC3)[nH]c(=O)c2C1` [42-58] were, in that order, < 50 nM and < 10 nM.

In the case of `O=C([C@H](O)c1cccc(C(F)(F)F)c1)N1CCCc2nc(C3(c4cccc(-c5ccc(F)cc5)c4)CC3)[nH]c(=O)c2C1` [42-59], the IC50 was < 50 nM under setting [1] and < 10 nM under setting [2]. On to `Cc1ccccc1-c1cccc(C2(c3nc4c(c(=O)[nH]3)CN(C(=O)[C@H](O)c3cccc(C(F)(F)F)c3)CCC4)CC2)c1` [42-60], for which the IC50 is < 50 nM under setting [1] and < 10 nM under setting [2].

Regarding `O=C([C@H](O)c1cccc(C(F)(F)F)c1)N1CCCc2nc(C3(c4cccc(-c5cc(F)cc(F)c5)c4)CC3)[nH]c(=O)c2C1` [42-61], the IC50 by setting is: under setting [1], < 50 nM; under setting [2], < 10 nM.

As for `O=C([C@H](O)c1cccc(C(F)(F)F)c1)N1CCCc2nc(C3(c4cccc(-c5ccc(F)c(F)c5)c4)CC3)[nH]c(=O)c2C1` [42-62], the IC50 under setting [1] was < 50 nM and the IC50 under setting [2] is < 10 nM. In the case of `N#Cc1ccccc1-c1cccc(C2(c3nc4c(c(=O)[nH]3)CN(C(=O)[C@H](O)c3cccc(C(F)(F)F)c3)CCC4)CC2)c1` [42-63], the IC50 was < 50 nM under setting [1] and < 10 nM under setting [2].

Turning to `Cc1cccc(-c2cccc(C3(c4nc5c(c(=O)[nH]4)CN(C(=O)[C@H](O)c4cccc(C(F)(F)F)c4)CCC5)CC3)c2)c1` [42-64], the IC50 under setting [1] is < 50 nM and the IC50 under setting [2] is < 10 nM. Turning to `N#Cc1ccc(-c2cccc(C3(c4nc5c(c(=O)[nH]4)CN(C(=O)[C@H](O)c4cccc(C(F)(F)F)c4)CCC5)CC3)c2)cc1` [42-65], the IC50 was < 50 nM under setting [1] and < 10 nM under setting [2]. With `N#Cc1cc(-c2cccc(C3(c4nc5c(c(=O)[nH]4)CN(C(=O)[C@H](O)c4cccc(C(F)(F)F)c4)CCC5)CC3)c2)ccc1F` [42-66], the IC50 runs as follows: under setting [1], < 50 nM; under setting [2], < 3 nM.

As for `N#Cc1ccc(-c2cccc(C3(c4nc5c(c(=O)[nH]4)CN(C(=O)[C@H](O)c4cccc(C(F)(F)F)c4)CCC5)CC3)c2)cc1F` [42-67], the half-maximal inhibitory concentration (IC50) by setting is: under setting [1], < 50 nM; under setting [2], < 10 nM. The like results for `N#Cc1ccc(-c2cccc(C3(c4nc5c(c(=O)[nH]4)CN(C(=O)[C@H](O)c4cccc(C(F)(F)F)c4)CCC5)CC3)c2)cc1C#N` [42-68] were, in that order, < 50 nM and < 10 nM.

Consider `N#Cc1cc(F)cc(-c2cccc(C3(c4nc5c(c(=O)[nH]4)CN(C(=O)[C@H](O)c4cccc(C(F)(F)F)c4)CCC5)CC3)c2)c1` [42-69], for which the IC50 runs as follows: under setting [1], < 50 nM; under setting [2], < 10 nM. For `O=C(Cc1cccc(-c2cccc(C(F)(F)F)c2)c1)N1CCCc2nc(C3(c4cccc(C5=CCCCC5)c4)CC3)[nH]c(=O)c2C1` [42-70], the IC50 reads like this: under setting [1], < 50 nM; under setting [2], < 10 nM. With `N#Cc1cc(C#N)cc(-c2cccc(C3(c4nc5c(c(=O)[nH]4)CN(C(=O)[C@H](O)c4cccc(C(F)(F)F)c4)CCC5)CC3)c2)c1` [42-71], the IC50 under setting [1] is < 50 nM and the IC50 under setting [2] was < 10 nM. The like results for `O=C([C@H](O)c1cccc(C(F)(F)F)c1)N1CCCc2nc(C3(c4cccc(C5=CCN(C(=O)C6(C(F)(F)F)CC6)CC5)c4)CC3)[nH]c(=O)c2C1` [42-72] were, in that order, < 50 nM and < 10 nM. On to `O=C([C@H](O)c1cccc(C(F)(F)F)c1)N1CCCc2nc(C3(c4cccc(C5=CCN(C(=O)N6CCCCC6)CC5)c4)CC3)[nH]c(=O)c2C1` [42-73], for which the IC50 is, setting by setting: under setting [1], < 50 nM; under setting [2], < 10 nM. Regarding `O=C(CN1CCc2ccccc21)N1CC=C(c2cccc(C3(c4nc5c(c(=O)[nH]4)CN(C(=O)[C@H](O)c4cccc(C(F)(F)F)c4)CCC5)CC3)c2)CC1` [42-74], the IC50 under setting [1] is < 50 nM and the half-maximal inhibitory concentration (IC50) under setting [2] was < 10 nM.

For `O=C([C@H](O)c1cccc(C(F)(F)F)c1)N1CCCc2nc(C3(c4cccc(C5=CCN(S(=O)(=O)c6ccc(F)cc6)CC5)c4)CC3)[nH]c(=O)c2C1` [42-75], the IC50 under setting [1] is < 50 nM and the IC50 under setting [2] is < 10 nM. The like results for `O=C([C@H](O)c1cccc(C(F)(F)F)c1)N1CCCc2nc(C3(c4cccc(C5=CCN(S(=O)(=O)C6CCCCC6)CC5)c4)CC3)[nH]c(=O)c2C1` [42-76] were, in that order, < 50 nM and < 10 nM. For `O=C([C@H](O)c1cccc(C(F)(F)F)c1)N1CCCc2nc(C3(c4cccc(C5=CCN(C(=O)[C@H]6CC[C@H](C(F)(F)F)CC6)CC5)c4)CC3)[nH]c(=O)c2C1` [42-77], in that order: < 50 nM and < 3 nM. In the case of `O=C([C@H](O)c1cccc(C(F)(F)F)c1)N1CCCc2nc(C3(c4cccc(C5=CCN(S(=O)(=O)Cc6ccccc6)CC5)c4)CC3)[nH]c(=O)c2C1` [42-78], the IC50 runs as follows: under setting [1], < 50 nM; under setting [2], < 10 nM. As to `O=C(Cc1ccc(COc2ccccc2)cc1)N1CC=C(c2cccc(C3(c4nc5c(c(=O)[nH]4)CN(C(=O)[C@H](O)c4cccc(C(F)(F)F)c4)CCC5)CC3)c2)CC1` [42-79], the IC50 by setting is: under setting [1], < 50 nM; under setting [2], < 10 nM. Regarding `O=C([C@H](O)c1cccc(C(F)(F)F)c1)N1CCCc2nc(C3(c4cccc(C5=CCN(CC(F)(F)F)CC5)c4)CC3)[nH]c(=O)c2C1` [42-81], the IC50 was < 50 nM under setting [1] and < 10 nM under setting [2]. For `COc1ccc(C(=O)N2CC=C(c3cccc(C4(c5nc6c(c(=O)[nH]5)CN(C(=O)[C@H](O)c5cccc(C(F)(F)F)c5)CCC6)CC4)c3)CC2)cc1OC1CCCC1` [42-82], in that order: < 50 nM and < 3 nM. On to `O=C([C@H](O)c1cccc(C(F)(F)F)c1)N1CCCc2nc(C3(c4cccc(C5=CCN(C(=O)C6(c7cccc(C(F)(F)F)c7)CC6)CC5)c4)CC3)[nH]c(=O)c2C1` [42-83], for which the IC50 runs as follows: under setting [1], < 50 nM; under setting [2], < 3 nM. The like results for `O=C(NC1CCCCC1)N1CC=C(c2cccc(C3(c4nc5c(c(=O)[nH]4)CN(C(=O)[C@H](O)c4cccc(C(F)(F)F)c4)CCC5)CC3)c2)CC1` [42-84] were, in that order, < 50 nM and < 3 nM.

For `CC(C)(C)CC(=O)N1CCN(c2ccc(-c3cccc(C4(c5nc6c(c(=O)[nH]5)CN(C(=O)[C@H](O)c5cccc(C(F)(F)F)c5)CCC6)CC4)c3)cn2)CC1` [42-85], the IC50 under setting [1] was < 50 nM and the IC50 under setting [2] was < 10 nM. `O=C(Cc1ccccc1)N1CCN(c2ccc(-c3cccc(C4(c5nc6c(c(=O)[nH]5)CN(C(=O)[C@H](O)c5cccc(C(F)(F)F)c5)CCC6)CC4)c3)cn2)CC1` [42-86]: the IC50 was < 50 nM under setting [1] and < 10 nM under setting [2]. For `O=C([C@H](O)c1cccc(C(F)(F)F)c1)N1CCCc2nc(C3(c4cccc(-c5ccc(N6CCC(c7ccccc7)CC6)nc5)c4)CC3)[nH]c(=O)c2C1` [42-87], in that order: < 50 nM and < 10 nM. In the case of `O=C([C@H](O)c1cccc(C(F)(F)F)c1)N1CCCc2nc(C3(c4cccc(-c5ccc(N6CCC(OCc7ccccc7)CC6)nc5)c4)CC3)[nH]c(=O)c2C1` [42-88], the IC50 is, setting by setting: under setting [1], < 50 nM; under setting [2], < 3 nM. Consider `CC(C)C(=O)N1CCN(c2ccc(-c3cccc(C4(c5nc6c(c(=O)[nH]5)CN(C(=O)[C@H](O)c5cccc(C(F)(F)F)c5)CCC6)CC4)c3)cn2)CC1` [42-89], for which the IC50 was < 50 nM under setting [1] and < 10 nM under setting [2]. Take `O=C(Cc1ccc(COc2ccccc2)cc1)N1CCN(c2ccc(-c3cccc(C4(c5nc6c(c(=O)[nH]5)CN(C(=O)[C@H](O)c5cccc(C(F)(F)F)c5)CCC6)CC4)c3)cn2)CC1` [42-90]: the IC50 under setting [1] is < 50 nM and the IC50 under setting [2] was < 10 nM. Regarding `CN(Cc1ccc(-c2cccc(C3(c4nc5c(c(=O)[nH]4)CN(C(=O)[C@H](O)c4cccc(C(F)(F)F)c4)CCC5)CC3)c2)cc1)C(=O)N1CCCCC1` [42-91], the IC50 was < 50 nM under setting [1] and < 10 nM under setting [2]. As for `CN(Cc1ccc(-c2cccc(C3(c4nc5c(c(=O)[nH]4)CN(C(=O)[C@H](O)c4cccc(C(F)(F)F)c4)CCC5)CC3)c2)cc1)C(=O)NC1CCCCC1` [42-93], the IC50 runs as follows: under setting [1], < 50 nM; under setting [2], < 3 nM. For `O=C([C@H](O)c1cccc(C(F)(F)F)c1)N1CCCc2nc(C3(c4cccc(-c5ccc(CN6CCC(OCc7ccccc7)CC6)cc5)c4)CC3)[nH]c(=O)c2C1` [42-95], in that order: < 50 nM and < 10 nM.
